Data set [1] relates to different rhinoviruses serotypes. In words: Protection of HeLa cells from rhinovirus-induced cytopathogenicity (MTT), all serotypes of Table 3. Particulars: for EC50: Enterovirus, HeLa, 72 h, read-out: MIC, summary over the serotypes; for S.I. / effectiveness and selectivity as rhinoviruses inhibiting agent: Table 3; for S.I.: nine serotypes, HeLa cells. (Protection from cytopathic effect is a common read-out in antiviral testing.)

Data set [2] has as its system rhinovirus serotype 89. In words: Protection of HeLa cells from rhinovirus-induced cytopathogenicity (MTT), serotype 89. Particulars: Enterovirus, 72 h, read-out: MIC, serotype 89.
For data set [3], the system named is rhinovirus serotype 15. In words: Protection of HeLa cells from rhinovirus-induced cytopathogenicity (MTT), serotype 15. Particulars: Enterovirus, 72 h, read-out: MIC, serotype 15.
Data set [4] has as its system rhinovirus serotype 50. In words: Protection of HeLa cells from rhinovirus-induced cytopathogenicity (MTT), serotype 50. Conditions: Enterovirus, 72 h, read-out: MIC, serotype 50.
Data set [5] relates to rhinovirus serotype 14. In words: Protection of HeLa cells from rhinovirus-induced cytopathogenicity (MTT), serotype 14. Particulars: Enterovirus, 72 h, read-out: MIC, serotype 14.
Data set [6] relates to rhinovirus serotype 22. In words: Protection of HeLa cells from rhinovirus-induced cytopathogenicity (MTT), serotype 22. Conditions: Enterovirus, 72 h, read-out: MIC, serotype 22.
For data set [7], the system named is rhinovirus serotype 30. In words: Protection of HeLa cells from rhinovirus-induced cytopathogenicity (MTT), serotype 30. Conditions: Enterovirus, 72 h, read-out: MIC, serotype 30.
Data set [8] relates to rhinovirus serotype 21. In words: Protection of HeLa cells from rhinovirus-induced cytopathogenicity (MTT), serotype 21. Particulars: Enterovirus, 72 h, read-out: MIC, serotype 21.
The subject of data set [9] is HRV-14. In words: Viral plaque reduction, HRV-14 on HeLa cells. The class given is cell-based, human rhinovirus. Particulars: for EC50: Rhinovirus B, HeLa cells, read-out: MIC, HRV-14; for S.I. (Selectivity Index): ratio MTL/MIC / S.I. (Selectivity Index): MTL/MIC ratio: HeLa MTL / HRV-14 MIC; for activity and selectivity to HRV-14 compared with the two previously known compounds: Table 1.

The test system of data set [10] is rhinovirus serotype 86. In words: Protection of HeLa cells from rhinovirus-induced cytopathogenicity (MTT), serotype 86. Particulars: Enterovirus, 72 h, read-out: MIC, serotype 86.
The nature of data set [11]: in vitro. Conditions: human, hela cells.
In data set [12] the test system is rhinovirus serotype 2. In words: Protection of HeLa cells from rhinovirus-induced cytopathogenicity (MTT), serotype 2. Conditions: Enterovirus, 72 h, read-out: MIC, serotype 2.
Data set [13] concerns rhinoviruses. Conditions: literature; interaction with proteins of the virus capsid; cited from earlier work.
Data set [14] deals with Virus Vaccinicum (VV). In words: Viral plaque reduction, VV on Vero cells. The format is cell-based. Particulars: Table 1, 50% plaque reduction, 37° C, read-out: MIC, VV.
Data set [15] deals with Coxsackie Virus B1 (Coxs). In words: Viral plaque reduction, Coxs on Vero cells. The class given is cell-based. Particulars: Table 1, 50% plaque reduction, 37° C, read-out: MIC, Coxs.
In data set [16] the test system is Herpes Simplex Virus type 1 (HSV-1). In words: Viral plaque reduction, HSV-1 on Vero cells. The format is cell-based. Particulars: Human alphaherpesvirus 1, Vero, read-out: MIC, HSV-1.
A short description of data set [17]: in vitro. Particulars: monkey, vero cells.
The subject of data set [18] is Vesicular Stomatitis Virus (VSV). In words: microbe, parasite or virus in culture. Conditions: Vero, read-out: MIC, VSV. The class given is cell-based.
The subject of data set [19] is Poliomyelitis Virus type 1 (Sb-1). In words: microbe, parasite or virus in culture. The class given is cell-based. Particulars: Vero, read-out: MIC, Sb-1.
Data set [20] concerns HeLa cells.
For data set [21], the system named is HRV-14. Conditions: Table 1; literature value; read-out: MIC, HRV-14 (comparison compounds); cited from earlier work.
The mark [22] stands for this setting: Table 2, 50% reduction of HRV14 plaques.
Where [23] appears, read: HRV14, Table 1 and text, 50% plaque reduction, 33° C.

The source of these data is patent US5278184A, “Synthetic derivatives of pyrrole and pyrrolidine suitable for the therapy of infections caused by rhinoviruses” (Repla Chemical Ltd., priority 1991, dated 1994).

Read-outs that look alike come from different tables or passages of the source.

For `CCOC(=O)c1ccc(OCCCCC(=O)c2cc(C=O)n(C)c2)cc1` [Compound 393, 4-[5-[4-(ethoxycarbonyl)phenoxy]pentanoyl]-1-methyl-1H-pyrrole-, -2-carboxaldeide], the EC50 in data set [1] came to 1400 nM; in data set [2] it was 200 nM; in [3], 2200 nM; in [4], 800 nM; in data set [5], 2000 nM; in [6], 1100 nM. Moreover, the EC50 worked out at 1100 nM in data set [7]; 2200 nM in data set [8]; 1400 nM in [9] (setting [22]); 140 nM in data set [10]; 500 nM in data set [12]. In data set [1], the S.I. is recorded as 36. Also, the “S.I. (Selectivity Index): ratio MTL/MIC” value in data set [9] (Table 2) is 36. Further, in data set [11], the MNTC turned out to be 50 µM.
Regarding “4-ethoxy-2'-hydroxy-4', 6-dimethoxychalcone [RO 09-0410]”, the inhibition of rhinoviruses result in data set [13] is listed as “inhibit a wide range of rhinoviruses”.
For `Cc1csc(C(=O)CCCCOc2ccc(C3=NCCO3)cc2)c1` [Compound 529, 2-[5-[4-(4,5-Dihydro-2-oxazolyl)phenoxy]pentanoyl]-4-methylthiophene], the EC50 in [1] is 4100 nM; in data set [2], 2900 nM; in data set [3] it was 200 nM; in data set [4], 4300 nM; in [5], 1100 nM; in [6], 11600 nM. Also, the EC50 stood at 5800 nM in data set [7]; 5800 nM in [8]; 6900 nM in [9] (setting [22]); 900 nM in data set [10]; 2900 nM in data set [12]. This compound came in with a S.I. in data set [1] of 71. Also, the “S.I. (Selectivity Index): ratio MTL/MIC” value in [9] (Table 2) is 42. The MNTC in [11] came out at 291 µM.
Turning to `CCOC(=O)c1ccc(OCCCCC(=O)c2ccc(C)s2)cc1` [Compound 514], the EC50 turned out to be 630 nM in data set [1]; 300 nM in data set [2]; 900 nM in data set [3]; 400 nM in data set [4]; 1700 nM in [5]; 1400 nM in data set [6]. The EC50 in [7] is 140 nM; in data set [8], 100 nM; in [9] (setting [22]) it was 3400 nM; in data set [10], 140 nM; in [12], 500 nM. For the same compound, the “effectiveness and selectivity as rhinoviruses inhibiting agent” value in data set [1] is “the most effective and selective”. Further, the S.I. in data set [1] was > 917. In [9] (Table 2), the “S.I. (Selectivity Index): ratio MTL/MIC” value is > 170. In data set [11], the MNTC was > 578 µM.
For the compound `Cn1cc(C(=O)CCCCOc2ccc(C3=NCCO3)cc2)cc1C=O` [Compound 395], the EC50 in data set [14] is > 280 µM; in data set [15] it was > 280 µM; in data set [16], > 280 µM; in [18], > 280 µM; in [9] (setting [23]) it was 5000 nM; in data set [19] it was > 280 µM. For the same compound, the results for the MNTC in data set [17] and in data set [11] were > 280 µM and > 425 µM, respectively. Further, the “activity and selectivity to HRV-14 compared with the two previously known compounds” value in data set [9] was “less effective, but even more selective to HRV-14”. For the same compound, in data set [9] (Table 1 and text), the “S.I. (Selectivity Index): MTL/MIC ratio” value is on record as > 85.
`O=C(CCCCOc1ccc(C2=NCCO2)cc1)c1ccc(Cl)s1` [Compound 366]: in data set [20], the cytotoxicity levels entry is “low cytotoxicity levels”. The EC50 in data set [14] is > 275 µM; in data set [15], > 275 µM; in data set [16], > 275 µM; in [18] it was > 275 µM; in [9] (setting [23]), 50 nM; in data set [19] it was 200 µM. In addition, the MNTC is > 275 µM in [17] and > 410 µM in data set [11].
As for `CCOC(=O)c1ccc(OCCCCC(=O)c2ccc(Cl)s2)cc1` [Compound 360], the EC50 is 760 nM in [1]; 300 nM in data set [2]; > 190 µM in data set [14]; 1600 nM in [3]; 400 nM in data set [4]; 2700 nM in data set [5]. Moreover, the EC50 in [15] is > 190 µM; in data set [16], > 190 µM; in data set [6], 1400 nM; in data set [7], 50 nM; in data set [18], > 190 µM; in data set [9] (setting [23]), 2000 nM. For the same compound, the EC50 in [10] was found to be 300 nM; in data set [19], 80 µM; in data set [12], 100 nM. In addition, in [1], the “effectiveness and selectivity as rhinoviruses inhibiting agent” value was “the most effective and selective”. Also, the S.I. in data set [1] is listed as > 717. The cytotoxicity levels entry in data set [20] is reported as “low cytotoxicity levels”. For the same compound, the MNTC was > 190 µM in data set [17] and > 545 µM in data set [11]. Also, in [9] (Table 1 and text), the “S.I. (Selectivity Index): MTL/MIC ratio” value was > 272.
Take `Cn1cccc1C(=O)CCCCOc1ccc(C2=NCCO2)cc1` [Compound 414]: the cytotoxicity levels entry in data set [20] was “low cytotoxicity levels”. The EC50 in data set [14] was > 300 µM; in [15] it was > 300 µM; in data set [16], > 300 µM; in [18], > 300 µM; in [9] (setting [23]) it was 800 nM; in data set [19], > 300 µM. Besides, the MNTC in data set [17] was > 300 µM; in data set [11], > 610 µM. Besides, in data set [9] (Table 1 and text), the “S.I. (Selectivity Index): MTL/MIC ratio” value was > 762.
Regarding `Cc1ccc(C(=O)CCCCOc2ccc(C3=NCCO3)cc2)s1` [Compound 522], the EC50 in data set [1] stood at 2000 nM; in data set [2], 300 nM; in data set [3], 300 nM; in [4], 1100 nM; in data set [5] it was 300 nM; in data set [6], 11600 nM. Moreover, the EC50 in data set [7] was 1400 nM; in [8], 1700 nM; in [9] (setting [22]), 2900 nM; in data set [10] it was 140 nM; in [12], 1100 nM. Further, the S.I. in [1] is > 145. Moreover, the “S.I. (Selectivity Index): ratio MTL/MIC” value in [9] (Table 2) is reported as > 100. Moreover, the MNTC in data set [11] is > 291 µM.
Regarding `CCCCCCCCCCCCCCOc1ccc(C(C)=O)o1` [RMI-15,731, 1-[5-(tetradecyloxy)-2-furanyl]ethanone], the inhibition of rhinoviruses result in [13] is given as “inhibit a wide range of rhinoviruses”.
With `Cn1cc(C(=O)CCCCOc2ccc(C(=O)O)cc2)cc1C=O` [Compound 394], the EC50 was > 380 µM in data set [14]; > 380 µM in data set [15]; > 380 µM in [16]; > 380 µM in [18]; 7000 nM in [9] (setting [23]); > 380 µM in [19]. Also, the results for the MNTC in data set [17] and in [11] were 380 µM and > 610 µM, respectively. Besides, the “activity and selectivity to HRV-14 compared with the two previously known compounds” value in data set [9] is “less effective, but even more selective to HRV-14”. Also, the “S.I. (Selectivity Index): MTL/MIC ratio” value in [9] (Table 1 and text) is > 87.
`Cc1cc(CCCCCCCOc2ccc(C3=NCCO3)cc2)on1` [WIN 51711, 5-{7-[4-(4,5-dihydro-2-oxazolyl)phenoxy]heptyl}-3-methyl-isoxazole, reference compound]: the EC50 in data set [1] is 1200 nM; in [2] it was 900 nM; in data set [21], 400 nM; in [3], 300 nM; in [4], 2000 nM; in data set [5], 600 nM. In addition, the EC50 in data set [6] was 3500 nM; in data set [7], 1700 nM; in data set [8], 600 nM; in data set [10], 60 nM; in data set [12] it was 1700 nM. The S.I. in data set [1] is 23. Also, the inhibition of rhinoviruses entry in [13] is on record as “inhibit a wide range of rhinoviruses”. Further, the “S.I. (Selectivity Index): MTL/MIC ratio” value in data set [9] (Table 1 and text) is 45. In addition, the “S.I. (Selectivity Index): ratio MTL/MIC” value in data set [9] (Table 2) turned out to be 45.
